The source of these data is patent US8455548B2, “Method of treating sensorimotor disorders with alpha-2 adrenergic receptor agonists” (Allergan, Inc., priority 2007, dated 2013).

Marks after values point to notes of the source that are not given here.

Test [1] has as its system PPI disrupted by psychostimulants. Briefly: Prepulse inhibition (PPI) of the startle response disrupted by psychostimulants. In kind it is in vivo, Male Sprague-Dawley rats. Particulars: for % PPI PP3: pre-pulse 3 dB above background; for % PPI PP6: pre-pulse 6 dB above background; for % PPI PP12: pre-pulse 12 dB above background. How it is done: Male Sprague-Dawley rats were treated with Drug 1 (IP) followed 20 minutes later by Drug 2 (IP or SC as indicated in the methods). Ten minutes following administration of Drug 2 (except in the case of apomorphine where animals were immediately tested post-apomorphine), rats were placed in the startle chamber and allowed 5 minutes to acclimate with 65-dB background white noise. The acclimation period was followed by a ˜15 minute test session during which time rats were presented with 40 ms 120 dB startle pulses alone or preceded 100 ms by a pre-pulse 3, 6, or 12 dB above background. These four types of active stimuli were presented in pseudorandom order along with no-stimulation trials to assess baseline activity throughout testing. An average of 20 s separated each trial type. The maximum startle magnitude was measured for every trial type. PPI for each animal was calculated as the percentage startle magnitude to the pre-pulse+pulse or no-stimulation trials relative to the pulse-alone startle magnitude. * and ** indicate differences relative to vehicle+vehicle-treated animals (P<0.05 and P<0.01, respectively).
Prepulse inhibition of the startle response. Sprague Dawley male rats (˜250 g-300 g) are used (n=8/group). Rats are administered drug 1 (vehicle, Compound A, Compound B, or clonidine) followed 20 minutes later by amphetamine (2 mg/kg, s.c.), apomorphine (0.5 mg/kg s.c), PCP (2 mg/kg i.p.) or vehicle (0.9% NaCl, s.c.). Either immediately (apomorphine) or 10 minutes (amphetamine, PCP, or vehicle) following injection of drug 2, animals are placed in the SR-Lab startle chamber (San Diego Instruments, San Diego Calif.). Each rat is acclimated to the chamber for 5 minutes with 65 dB background noise. This acclimation period is followed by a ˜15 minute PPI test session where rats are presented with 120 dB startle pulses without a pre-pulse or pulses preceded by a pre-pulse of 3, 6, or 12 dB above background noise. These active stimuli are presented in pseudorandom order along with no-sound trials, with an average of 20 sec separating each trial (range 5-27 seconds). A sensor in the chamber records the startle magnitude following all stimuli presented. % PPI represents the percentage startle magnitude to the pre-pulse+pulse or no-stim trials relative to the pulse-alone startle magnitude.
The alpha 2B compounds were administered i.p. or p.o., PCP was administered i.p., and apomorphine and amphetamine were administered s.c.

Test [2] concerns amphetamine-induced stereotypy. Nature of the test: Amphetamine-induced stereotypy (open field locomotor behavior). Type of test: in vivo, C57B/6 male mice. Particulars: for AMBULATIONS: indicative of hyperactivity; for FINE MOVEMENTS: scored 60 min post-amphetamine, indicative of stereotypy; for inhibition of amphetamine-induced stereotypy (in words): high-dose psychostimulant administration. How it is done: C57B/6 male mice were placed in an open field apparatus and allowed to habituate for 15-30 minutes. Compounds A or B were administered PO at 0, +15, or +30 minutes relative to amphetamine (8 mg/kg) administration (Compound B was also administered 15 minutes pre-amphetamine), and locomotor behavior was scored for an additional 60 minutes post-amphetamine. Amphetamine was administered IP. Locomotion was separated into “fine movements” (indicative of stereotypy) and “ambulations” (indicative of hyperactivity).
Amphetamine induced stereotypy. C57B/6 male mice were placed in an open field apparatus and allowed to habituate for 15-30 minutes. Compounds A or B were administered at 0, +15, or +30 minutes relative to amphetamine (8 mg/kg) administration (Compound B was also administered 15 minutes pre-amphetamine), and locomotor behavior was scored for an additional 60 minutes post-amphetamine. Locomotion was separated into “fine movements” (indicative of stereotypy) and “ambulations” (indicative of hyperactivity).

The next test deals with T1, alpha-2A receptor (Homo sapiens, UniProt P08913).
T1 sequence (P08913 1-465): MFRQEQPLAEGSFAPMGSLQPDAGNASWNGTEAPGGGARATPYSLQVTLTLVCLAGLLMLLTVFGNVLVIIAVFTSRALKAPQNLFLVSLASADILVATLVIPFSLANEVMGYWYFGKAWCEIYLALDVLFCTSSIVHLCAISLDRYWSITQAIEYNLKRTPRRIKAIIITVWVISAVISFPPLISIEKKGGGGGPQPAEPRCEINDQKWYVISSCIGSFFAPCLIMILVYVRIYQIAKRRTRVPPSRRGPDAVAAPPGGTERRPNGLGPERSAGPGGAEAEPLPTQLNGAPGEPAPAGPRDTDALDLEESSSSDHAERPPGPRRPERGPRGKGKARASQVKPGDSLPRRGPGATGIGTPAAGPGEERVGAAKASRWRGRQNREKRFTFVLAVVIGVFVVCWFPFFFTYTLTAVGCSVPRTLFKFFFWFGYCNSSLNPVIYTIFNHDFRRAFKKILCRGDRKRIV
Nature of the test: Alpha-adrenergic receptor activation (efficacy relative to brimonidine, e.g. RSAT). In kind it is cell-based. Particulars: lacks significant activity = less than 40% of the efficacy of brimonidine at the alpha-2A receptor subtype. From the text: The methods of the present invention use alpha-2 agonists lacking significant activity at the alpha-2A receptor subtype. An agonist lacks significant alpha-2A receptor activity if the agonist has less than 40% of the efficacy of brimonidine at the alpha-2A receptor subtype. Compounds of the invention include, therefore, alpha-2B receptor agonists lacking significant alpha-2A activity; alpha 2B/2C receptor agonists lacking significant alpha-2A activity; and alpha-2C receptor agonists lacking significant alpha-2A activity.
Efficacy, also known as intrinsic activity, is a measure of maximal receptor activation achieved by a compound and can be determined using any accepted assay of alpha-adrenergic receptor activation, such as a cAMP or Receptor Selection and Amplification Technology (RSAT). […]
The RSAT assay measures receptor-mediated loss of contact inhibition resulting in selective proliferation of receptor-containing cells in a mixed population of confluent cells. The increase in cell number is assessed with an appropriate detectable marker gene such as beta-galactosidase, if desired, in a high throughput or ultra high throughput assay format. […]
As an example, an RSAT assay can be performed essentially as follows. […] The EC50 and maximal effect (i.e., efficacy) of each drug at each receptor is determined.

Where [3] appears, read: Drug 1 30 ug/kg, Drug 2 Apo (0.5 mg/kg).
The mark [4] stands for this setting: Drug 1 30 ug/kg, Drug 2 PCP (2 mg/kg).
[5] abbreviates: Drug 1 0.03 mg/kg, Drug 2 Amph (2 mg/kg).
[6] abbreviates: compound PO at 0 min post-amphetamine (8 mg/kg IP).
Setting [7] is: compound PO at 15 min post-amphetamine (8 mg/kg IP).
The mark [8] stands for this setting: compound PO at 30 min post-amphetamine (8 mg/kg IP).
[9] abbreviates: Drug 1 100 ug/kg, Drug 2 Amph (2 mg/kg).
The mark [10] stands for this setting: compound PO at -15 min relative to amphetamine (8 mg/kg IP).
[11] abbreviates: Drug 1 10 ug/kg, Drug 2 Amph (2 mg/kg).
[12] abbreviates: Drug 1 30 ug/kg, Drug 2 Amph (2 mg/kg).

With `Clc1cccc(Cl)c1N=C1NCCN1` [Clonidine, reference compound], the “% PPI PP3” value in test [1] (setting [3]) came to 20.0 ± 10.6%; in test [1] (setting [4]), 31.7 ± 13.5%; in test [1] (setting [5]), 21.8 ± 9.1%. Also, the “% PPI PP6” value in test [1] (setting [3]) amounted to 31.5 ± 11.0%; in test [1] (setting [4]), 30.1 ± 13.1%; in test [1] (setting [5]) it was 35.5 ± 8.6%. Further, the “% PPI PP12” value stood at 24.5% in test [1] (setting [3]), 53.7% in test [1] (setting [4]) and 51.3% in test [1] (setting [5]).

On to `OCCNC(=S)NCc1cccc(Cl)c1F` [Compound A], for which the AMBULATIONS in test [2] (setting [6]) is reported as 6338.0 ± 714.1; in test [2] (setting [7]) it was 14056.6 ± 708.7; in test [2] (setting [8]), 7494.6 ± 612.3. Besides, the results for the “FINE MOVEMENTS” value in test [2] (setting [6]), in test [2] (setting [7]) and in test [2] (setting [8]) were 810.1 ± 112.5^⋄, 1312.9 ± 205.2^⋄ and 2581.3 ± 359.1, respectively. Further, the “inhibition of amphetamine-induced stereotypy (in words)” value in test [2] is listed as “effectively inhibit stereotypy”. Further, the “% PPI PP3” value in test [1] (setting [3]) is recorded as 38.5 ± 7.7%; in test [1] (setting [4]) it was 40.2 ± 7.5%; in test [1] (setting [9]) it was 38.6 ± 7.1%. The “% PPI PP6” value came out at 53.8 ± 6.2% in test [1] (setting [3]), 50.6 ± 5.5% in test [1] (setting [4]) and 50.2 ± 4.7% in test [1] (setting [9]). In addition, the “% PPI PP12” value in test [1] (setting [3]) is 58.9%; in test [1] (setting [4]), 62.9%; in test [1] (setting [9]), 68.5%. Moreover, the “restoration of PPI disrupted by psychostimulants (in words)” value in test [1] (amphetamine, apomorphine, and phencyclidine) is “significantly inhibited the disruption of PPI”. The “alpha-2A receptor activity (in words)” value at alpha-2A receptor was “lack significant alpha-2A receptor activity”.

In the case of `O=C1c2ccccc2CC[C@H]1Cc1c[nH]c(=S)[nH]1` [Compound B], the AMBULATIONS in test [2] (setting [6]) worked out at 9954.8 ± 1042.9; in test [2] (setting [7]), 7226.2 ± 457.3; in test [2] (setting [8]) it was 8453.8 ± 461.7; in test [2] (setting [10]) it was 7258.8 ± 672.4. Further, the “FINE MOVEMENTS” value in test [2] (setting [6]) was 736.7 ± 103.4^⋄; in test [2] (setting [7]) it was 1096.3 ± 79.2^⋄; in test [2] (setting [8]), 1284.8 ± 48.8^⋄; in test [2] (setting [10]) it was 937.3 ± 47.3^⋄. The “inhibition of amphetamine-induced stereotypy (in words)” value in test [2] is “effectively inhibit stereotypy”. Besides, the “% PPI PP3” value in test [1] (setting [11]) is given as 28.2 ± 7.4%; in test [1] (setting [12]), 25.3 ± 9.2%; in test [1] (setting [9]), 34.5 ± 5.7%. For the same compound, the entries for the “% PPI PP6” value in test [1] (setting [11]), in test [1] (setting [12]) and in test [1] (setting [9]) were 30.9 ± 6.2%*, 48.6 ± 5.3% and 45.3 ± 7.4%, respectively. For the same compound, the “% PPI PP12” value in test [1] (setting [11]) was found to be 46.9%; in test [1] (setting [12]) it was 60.0%; in test [1] (setting [9]), 67.0%. Also, the “alpha-2A receptor activity (in words)” value on alpha-2A receptor is “lack significant alpha-2A receptor activity”.
